Data from US7223759B2, “Antibacterial 3,5-diaminopiperidine-substituted aromatic and heteroaromatic compounds” (Anadys Pharmaceuticals, Inc., priority 2003, dated 2007).

tested on: Escherichia coli (ATCC25922) or Staphylococcus aureus (ATCC25923); test: Antibacterial MIC, microdilution method in Mueller-Hinton medium; format: cell-based; details: Escherichia coli, 18 h, MIC in E. coli or S. aureus; two-fold serial dilutions 64 to 0.5 μg/ml in duplicate; 18 hours of incubation at 35° C.; read-out: Potency (MIC)
Experimental: The antibacterial activity of the Formula I compounds was evaluated against standard bacterial strains by determining the minimal inhibitory concentration (MIC) to block growth. Each drug was assayed by the microdilution method in Mueller-Hinton medium, as recommended by the National Committee for Clinical Laboratory Standards. Approved Standard M7-A5: Methods for Dilution Antimicrobial Susceptibility Tests for Bacteria That Grow Aerobically 5th Ed. (National Committee for Clinical Laboratory Standards, Wayne, Pa., 2000). The tested bacterial strains included Escherichia coli (American Type Collection ATCC25922), Staphylococcus aureus (ATCC25923), and Pseudomonas aeruginosa (ATCC27853). Two-fold serial dilutions of each compound ranging from 64 to 0.5 μg/ml were tested in duplicate. The MIC was determined as the lowest concentration of each compound that prevented bacterial growth after 18 hours of incubation at 35° C. […] The mass of each compound in the Table was confirmed by LC-MS.

How did the MIC turn out when Cl.O=C(Nc1ccc(O)cc1)c1ccc(Nc2nc(N3CCCCC3)nc(N3CCCCC3)n2)cc1O [N-[3-hydroxy-4-(4-hydroxy-phenylcarbamoyl)-phenyl]-4,6-Bis((3R,5S)-3,5-0diamino-piperidin-1-yl)-[1,3,5]triazine-2-amine] was run?
The MIC was less than 16 mg/L.

With Cl.N[C@@H]1C[C@H](N)CN(c2nc(Nc3ccc4c(c3)CCC4)nc(N3C[C@H](N)C[C@H](N)C3)n2)C1 [N-indan-5-yl-4,6-Bis-((3R,5S)-3,5-diamino-piperidin-1-yl)-[1,3,5]triazine-2-amine] as the compound, how does the MIC read?
Its MIC is greater than 64 mg/L.

With Cc1cc(=O)oc2cc(Nc3nc(N4C[C@H](N)C[C@H](N)C4)nc(N4CCC[C@@H](O)C4)n3)ccc12 [7-[4-((3R,5S)-3,5-Diamino-piperidin-1-yl)-6-((R)-3-hydroxy-piperidin-1-yl)-[1,3,5]triazin-2-ylamino]-4-methyl-chromen-2-one] as the compound, how does the MIC read?
The MIC was less than 64 mg/L.

Cc1ccc(C(=O)Nc2ccc(Nc3nc(N4CC(N)C4)nc(N4C[C@H](N)C[C@H](N)C4)n3)cc2O)cc1.Cl [N-{4-[4-(3-Amino-azetidin-1-yl)-6-((3R,5S)-3,5-diamino-piperidin-1-yl)-[1,3,5]triazin-2-ylamino]-2-hydroxy-phenyl}-4-methyl-benzamide] was tested. Which MIC did it give?
Its MIC is less than 64 mg/L.

For CN(Cc1cccc2ccccc12)c1nc(N2CCCCC2)nc(N2CCCCC2)n1.Cl [N,N-Methyl-naphthalen-1-ylmethyl-4,6-Bis-((3R,5S)-3,5-diamino-piperidin-1-yl)-[1,3,5]triazine-2-amine], which MIC is on record?
Its MIC is greater than 64 mg/L.

With CC(=O)Nc1ccc(Nc2nc(N3C[C@H](N)C[C@H](N)C3)nc(N3C[C@H](N)C[C@H](N)C3)n2)cc1 [drawing 178, N-(4-acetylamino-phenyl)-4,6-Bis-((3R,5S)-3,5-diamino-piperidin-1-yl)-[1,3,5]triazine-2-amine] as the compound, how does the MIC read?
The MIC was greater than 64 mg/L.

same assay, conditions: Escherichia coli, 18 h, read-out: Potency (MIC)

Which MIC does the source give for N[C@@H]1C[C@H](N)CN(c2nc(Nc3ccc(S(=O)(=O)Nc4ccc5cn[nH]c5c4)cc3)nc(N3CCC[C@@H](O)C3)n2)C1 [4-[4-((3S,5R)-3,5-Diamino-piperidin-1-yl)-6-((R)-3-hydroxy-piperidin-1-yl)-[1,3,5]triazin-2-ylamino]-N-(1H-indazol-6-yl)-benzenesulfonamide] here?
Its MIC is greater than 64 mg/L.

For Cc1ccc(S(=O)(=O)N(Cc2ccccc2)c2ccc(Nc3nc(N4C[C@H](N)C[C@H](N)C4)nc(N4CC[C@H](O)[C@H](CN)C4)n3)c(O)c2)cc1 [N-{4-[4-((3R,4S)-3-Aminomethyl-4-hydroxy-piperidin-1-yl)-6-((3R,5S)-3,5-diamino-piperidin-1-yl)-[1,3,5]triazin-2-ylamino]-3-hydroxy-phenyl}-N-benzyl-4-methyl-benzenesulfonamide], which MIC is on record?
The MIC was less than 64 mg/L.

With NC[C@@H]1C[C@@H](O)CN1c1nc(Nc2ccc(NC(=O)c3ccc4ccccc4c3O)cc2)nc(N2C[C@H](N)C[C@H](N)C2)n1 [1-Hydroxy-naphthalene-2-carboxylicacid {4-[4-((2S,4R)-2-aminomethyl-4-hydroxy-pyrrolidin-1-yl)-6-((3R,5S)-3,5-diamino-piperidin-1-yl)-[1,3,5]triazin-2-ylamino]-phenyl}-amide] as the compound, how does the MIC read?
The MIC was less than 64 mg/L.

How did the MIC turn out when COc1ccc(OC)c(NC(=O)c2ccc(Nc3nc(N4C[C@H](N)C[C@H](N)C4)nc(N4C[C@H](N)C[C@H](N)C4)n3)cc2O)c1 [N-[4-(2,5-dimethoxy-phenylcarbamoyl)-3-hydroxy-phenyl]-4,6-Bis-((3R,5S)-3,5-diamino-piperidin-1-yl)-[1,3,5]triazine-2-amine] was run?
The MIC was less than 16 mg/L.

Which MIC does the source give for N[C@@H]1C[C@H](N)CN(c2nc(Nc3ccc(NC(=O)c4ccc(F)cc4O)c(Cl)c3)nc(N3C[C@H](N)C[C@H](N)C3)n2)C1 [N-[3-chloro-4-(4-fluoro-2-hydroxy-benzoylamino)-phenyl]-4,6-Bis-((3R,5S)-3,5-diamino-piperidin-1-yl)-[1,3,5]triazine-2-amine] here?
The MIC was greater than 64 mg/L.

For NC1CN(c2nc(Nc3ccc(NC(=O)c4ccc(Cl)cc4)c(O)c3)nc(N3C[C@H](N)C[C@H](N)C3)n2)C1 [N-{4-[4-(3-Amino-azetidin-1-yl)-6-((3R,5S)-3,5-diamino-piperidin-1-yl)-[1,3,5]triazin-2-ylamino]-2-hydroxy-phenyl}-4-chloro-benzamide], which MIC is on record?
The MIC was less than 16 mg/L.

How did the MIC turn out when N[C@@H]1C[C@H](N)CN(c2nc(NCc3ccc(-c4ccccc4)cc3)nc(N3C[C@H](N)C[C@H](N)C3)n2)C1 [N-biphenyl-4-ylmethyl-4,6-Bis-((3R,5S)-3,5-diamino-piperidin-1-yl)-[1,3,5]triazine-2-amine] was run?
Its MIC is less than 64 mg/L.

Which MIC does the source give for NCCNc1nc(Nc2ccc(NC(=O)c3ccc4ccccc4c3O)cc2)nc(N2C[C@H](N)C[C@H](N)C2)n1 [1-Hydroxy-naphthalene-2-carboxylicacid {4-[4-(2-amino-ethylamino)-6-((3R,5S)-3,5-diamino-piperidin-1-yl)-[1,3,5]triazin-2-ylamino]-phenyl}-amide] here?
The MIC was less than 16 mg/L.

For CC(=O)c1ccc(Nc2nc(N3C[C@H](N)C[C@H](N)C3)nc(N3CC[C@H](O)[C@@H]3CN)n2)cc1 [1-{4-[4-((2S,3S)-2-Aminomethyl-3-hydroxy-pyrrolidin-1-yl)-6-((3R,5S)-3,5-diamino-piperidin-1-yl)-[1,3,5]triazin-2-ylamino]-phenyl}-ethanone], which MIC is on record?
The MIC was greater than 64 mg/L.

With Cc1cc(Nc2nc(N3C[C@H](N)C[C@H](N)C3)nc(N3C[C@H](N)C[C@H](N)C3)n2)cc(Cl)c1NC(=O)c1ccc(Cl)cc1O [N-[3-chloro-4-(4-chloro-2-hydroxy-benzoylamino)-5-methyl-phenyl]-4,6-Bis-((3R,5S)-3,5-diamino-piperidin-1-yl)-[1,3,5]triazine-2-amine] as the compound, how does the MIC read?
Its MIC is less than 16 mg/L.

How did the MIC turn out when N[C@@H]1C[C@H](N)CN(c2nc(Nc3ccc(C(=O)CC(=O)Nc4cccc(C(F)(F)F)c4)cc3)nc(N3C[C@H](N)C[C@H](N)C3)n2)C1 [N-{4-[2-(3-trifluoromethyl-phenylcarbamoyl)-acetyl]-phenyl}-4,6-Bis-((3R,5S)-3,5-diamino-piperidin-1-yl)-[1,3,5]triazine-2-amine] was run?
The MIC was less than 16 mg/L.

With CCCCCCOc1ccc(Nc2nc(N3C[C@H](N)C[C@H](N)C3)nc(N3C[C@H](N)C[C@H](N)C3)n2)cc1 [N-(4-hexyloxy-phenyl)-4,6-Bis-((3R,5S)-3,5-diamino-piperidin-1-yl)-[1,3,5]triazine-2-amine] as the compound, how does the MIC read?
The MIC was less than 16 mg/L.

How did the MIC turn out when N[C@@H]1C[C@H](N)CN(c2nc(Nc3ccc(C(=O)Nc4cccc(Cl)c4)c(O)c3)nc(N3C[C@H](N)C[C@H](N)C3)n2)C1 [N-[4-(3-chloro-phenylcarbamoyl)-3-hydroxy-phenyl]-4,6-Bis-((3R,5S)-3,5-diamino-piperidin-1-yl)-[1,3,5]triazine-2-amine] was run?
The MIC was less than 16 mg/L.

With Cc1cccc(C(=O)Nc2cccc(Nc3nc(N4C[C@H](N)C[C@H](N)C4)nc(N4C[C@H](N)C[C@H](N)C4)n3)c2)c1O [N-[3-(2-hydroxy-3-methyl-benzoylamino)-phenyl]-4,6-Bis-((3R,5S)-3,5-diamino-piperidin-1-yl)-[1,3,5]triazine-2-amine] as the compound, how does the MIC read?
Its MIC is less than 16 mg/L.

With Cc1ccc(S(=O)(=O)Nc2ccccc2Nc2nc(N3C[C@H](N)C[C@H](N)C3)nc(N3C[C@H](N)C[C@H](N)C3)n2)cc1 [N-[2-(toluene-4-sulfonylamino)-phenyl]-4,6-Bis-((3R,5S)-3,5-diamino-piperidin-1-yl)-[1,3,5]triazine-2-amine] as the compound, how does the MIC read?
The MIC was greater than 64 mg/L.

N[C@@H]1C[C@H](N)CN(c2nc(Nc3ccc(NC(=O)c4ccc(Cl)cc4)c(O)c3)nc(N3C[C@@H](N)C[C@@H](O)C3)n2)C1 [N-{4-[4-((3S,5R)-3-Amino-5-hydroxy-piperidin-1-yl)-6-((3S,5R)-3,5-diamino-piperidin-1-yl)-[1,3,5]triazin-2-ylamino]-2-hydroxy-phenyl}-4-chloro-benzamide] was tested. Which MIC did it give?
Its MIC is less than 16 mg/L.

With N[C@@H]1C[C@H](N)CN(c2nc(Nc3ccc(NC(=O)c4ccc(Cl)cc4)c(O)c3)nc(N3CCC(N4CCCC4)CC3)n2)C1 [4-Chloro-N-{4-[4-((3S,5R)-3,5-diamino-piperidin-1-yl)-6-(4-pyrrolidin-1-yl-piperidin-1-yl)-[1,3,5]triazin-2-ylamino]-2-hydroxy-phenyl}-benzamide] as the compound, how does the MIC read?
Its MIC is less than 64 mg/L.

How did the MIC turn out when N[C@@H]1C[C@H](N)CN(c2nc(Nc3ccc(C(=O)CC(=O)Nc4ccccc4Cl)cc3)nc(N3C[C@H](O)C[C@H](O)C3)n2)C1 [N-(2-Chloro-phenyl)-3-{4-[4-((3R,5S)-3,5-diamino-piperidin-1-yl)-6-((3R,5S)-3,5-dihydroxy-piperidin-1-yl)-[1,3,5]triazin-2-ylamino]-phenyl}-3-oxo-propionamide] was run?
Its MIC is less than 64 mg/L.

With N[C@@H]1C[C@H](N)CN(c2nc(Nc3ccc(C(=O)Nc4cc(Cl)c(O)c(Cl)c4)c(O)c3)nc(N3C[C@H](N)C[C@H](N)C3)n2)C1 [N-[4-(3,5-dichloro-4-hydroxy-phenylcarbamoyl)-3-hydroxy-phenyl]-4,6-Bis-((3R,5S)-3,5-diamino-piperidin-1-yl)-[1,3,5]triazine-2-amine] as the compound, how does the MIC read?
The MIC was less than 64 mg/L.

How did the MIC turn out when N[C@@H]1C[C@H](N)CN(c2nc(Nc3ccc(C(=O)CC(=O)Nc4ccccc4Cl)cc3)nc(N3C[C@@H](N)[C@@H](N)C3)n2)C1 [N-(2-Chloro-phenyl)-3-{4-[4-((3R,5S)-3,5-diamino-piperidin-1-yl)-6-((3R,4S)-3,4-diamino-pyrrolidin-1-yl)-[1,3,5]triazin-2-ylamino]-phenyl}-3-oxo-propionamide] was run?
Its MIC is less than 64 mg/L.

same assay, conditions: MIC in E. coli or S. aureus; two-fold serial dilutions 64 to 0.5 μg/ml in duplicate; 18 hours of incubation at 35° C.

How did the “Potency (MIC)” value turn out when Cc1ccc(S(=O)(=O)N(Cc2ccccc2)c2ccc(Nc3nc(N4C[C@H](N)C[C@H](N)C4)nc(N4CC[C@H](O)[C@@H]4CN)n3)c(O)c2)cc1 was run?
Its value is “+ (+ means MIC<64 μg/ml in E. coli or S. aureus)”.
